Reference: the NIST ThermoML archive (doi:10.1016/j.jct.2016.02.009)
Values joined by “and” are separate entries in the source; they are usually repeats but may differ in a detail not shown here. Equal entries are not always repeated.

Test: molar heat capacity at constant pressure
Conditions: 101.33 kPa, Small (less than 1 g) adiabatic calorimetry

CCCCCCCCCCn1cc[n+](C)c1.O=S(=O)([N-]S(=O)(=O)C(F)(F)F)C(F)(F)F
Conditions | molar heat capacity at constant pressure
239.07 K, Crystal 2 | 641 J/K/mol
240 K, Crystal 2 | 651.3 J/K/mol
240.86 K, Crystal 2 | 665.1 J/K/mol
242.62 K, Crystal 2 | 694.9 J/K/mol
244.33 K, Crystal 2 | 733.6 J/K/mol
245.99 K, Crystal 2 | 789 J/K/mol
247.56 K, Crystal 2 | 885.2 J/K/mol
249 K, Crystal 1 | 1053 J/K/mol
249 K, Crystal 2 | 1053 J/K/mol
249.01 K, Crystal 1 | 1053 J/K/mol
250.61 K, Crystal 1 | 627.9 J/K/mol
252 K, Crystal 1 | 619.2 J/K/mol
252.45 K, Crystal 1 | 620.8 J/K/mol
254.29 K, Crystal 1 | 629.9 J/K/mol
256.12 K, Crystal 1 | 642.5 J/K/mol
257.94 K, Crystal 1 | 658.6 J/K/mol
259.72 K, Crystal 1 | 680.3 J/K/mol
260 K, Crystal 1 | 648.7 J/K/mol
261.48 K, Crystal 1 | 710 J/K/mol
263.19 K, Crystal 1 | 751.8 J/K/mol
263.96 K, Liquid | 730.6 J/K/mol
264.85 K, Crystal 1 | 795.1 J/K/mol
265.87 K, Liquid | 731.7 J/K/mol
266.46 K, Crystal 1 | 822.8 J/K/mol
267.69 K, Liquid | 733 J/K/mol
268.04 K, Crystal 1 | 872.1 J/K/mol
269.51 K, Liquid | 734.3 J/K/mol
269.56 K, Crystal 1 | 972.8 J/K/mol
270 K, Crystal 1 | 687.6 J/K/mol
271.33 K, Liquid | 735.9 J/K/mol
273.16 K, Liquid | 736.9 J/K/mol
274.98 K, Liquid | 738.2 J/K/mol
276.81 K, Liquid | 739.4 J/K/mol
277.33 K, Crystal 1 | 717.5 J/K/mol
277.33 K, Liquid | 739.7 J/K/mol
278.63 K, Liquid | 740.6 J/K/mol
278.84 K, Liquid | 741.1 J/K/mol
280 K, Liquid | 741.6 J/K/mol
280.45 K, Liquid | 741.8 J/K/mol
280.56 K, Liquid | 742.3 J/K/mol
282.28 K, Liquid | 743.2 J/K/mol and 742.8 J/K/mol
284 K, Liquid | 744.4 J/K/mol
284.1 K, Liquid | 744.5 J/K/mol
285.72 K, Liquid | 745.6 J/K/mol
285.92 K, Liquid | 745.7 J/K/mol
287.44 K, Liquid | 747.1 J/K/mol
287.75 K, Liquid | 746.9 J/K/mol
289.16 K, Liquid | 747.9 J/K/mol
289.57 K, Liquid | 748.4 J/K/mol
290 K, Liquid | 748.8 J/K/mol
290.88 K, Liquid | 749.4 J/K/mol
291.4 K, Liquid | 749.8 J/K/mol
292.6 K, Liquid | 750.6 J/K/mol
293.22 K, Liquid | 750.8 J/K/mol
294.32 K, Liquid | 751.9 J/K/mol
295.05 K, Liquid | 752.4 J/K/mol
296.04 K, Liquid | 753.2 J/K/mol
296.87 K, Liquid | 753.9 J/K/mol
297.77 K, Liquid | 754.3 J/K/mol
298.15 K, Liquid | 754.8 J/K/mol
298.69 K, Liquid | 755.1 J/K/mol
299.49 K, Liquid | 755.7 J/K/mol
300 K, Liquid | 756.2 J/K/mol
301.26 K, Liquid | 757.2 J/K/mol
303.08 K, Liquid | 758.7 J/K/mol
304.91 K, Liquid | 759.9 J/K/mol
306.73 K, Liquid | 761.3 J/K/mol
308.56 K, Liquid | 762.8 J/K/mol
310 K, Liquid | 763.8 J/K/mol
310.38 K, Liquid | 764.3 J/K/mol
312.21 K, Liquid | 765.5 J/K/mol
314.03 K, Liquid | 766.8 J/K/mol
315.86 K, Liquid | 768.4 J/K/mol
317.69 K, Liquid | 769.8 J/K/mol
319.51 K, Liquid | 771.1 J/K/mol
320 K, Liquid | 771.5 J/K/mol
321.34 K, Liquid | 772.8 J/K/mol
323.17 K, Liquid | 774.3 J/K/mol
324.99 K, Liquid | 775.7 J/K/mol
326.82 K, Liquid | 777.2 J/K/mol
328.64 K, Liquid | 778.5 J/K/mol
330 K, Liquid | 779.5 J/K/mol
330.47 K, Liquid | 779.9 J/K/mol
332.29 K, Liquid | 781.6 J/K/mol
334.12 K, Liquid | 783.1 J/K/mol
335.95 K, Liquid | 784.6 J/K/mol
337.77 K, Liquid | 786 J/K/mol
339.6 K, Liquid | 787.5 J/K/mol
340 K, Liquid | 787.7 J/K/mol
341.42 K, Liquid | 788.9 J/K/mol
343.25 K, Liquid | 789.9 J/K/mol
345.08 K, Liquid | 791.3 J/K/mol
346.91 K, Liquid | 793.1 J/K/mol
348.74 K, Liquid | 794.8 J/K/mol
350 K, Liquid | 796 J/K/mol
350.57 K, Liquid | 796.5 J/K/mol
352.4 K, Liquid | 797.8 J/K/mol
354.23 K, Liquid | 799.5 J/K/mol
356.06 K, Liquid | 801.2 J/K/mol
357.89 K, Liquid | 802.8 J/K/mol
359.72 K, Liquid | 804.3 J/K/mol
360 K, Liquid | 804.6 J/K/mol
361.55 K, Liquid | 806 J/K/mol
363.37 K, Liquid | 807.7 J/K/mol
365.2 K, Liquid | 809.1 J/K/mol
367.03 K, Liquid | 810.8 J/K/mol
368.86 K, Liquid | 812.7 J/K/mol
370 K, Liquid | 813.4 J/K/mol
